Consider eight compounds from PubChem BioAssay (NCI).

The structures appear in SMILES notation.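 Interpolation was linear, between the two tested concentrations surrounding the appropriate level; five concentrations were tested over 48 hours in 96-well plates. GI50 = concentration required for 50% inhibition of growth. TGI: total growth inhibition.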

Among the test systems are HL-60(TB) leukemia; CAKI-1 renal; CCRF-CEM leukemia; SNB-75 CNS; K-562 leukemia; NCI/ADR-RES ovarian; NCI-H522 lung; BT-549 breast; HOP-92 NSCLC; NCI-H23 lung.
Common to all, as to assay: inhibition of tumour cell growth, NCI panel, 48 h

Consider `CCOC(=O)c1cc2c(n1Cc1cc(OC)cc(OC)c1)-c1oncc1CCC2`, for which the GI50 is 0.0311 µM in the experiment on HL-60(TB) leukemia; 0.101 µM with CAKI-1 renal; 0.0542 µM with CCRF-CEM leukemia; 0.0276 µM in the experiment on SNB-75 CNS; 0.0575 µM in the experiment on K-562 leukemia; 0.0603 µM in the experiment on NCI/ADR-RES ovarian. The GI50 in the experiment with NCI-H522 lung was 0.0194 µM; in the experiment with BT-549 breast, 0.89 µM; in the experiment on HOP-92 NSCLC, 0.0858 µM; in the experiment with NCI-H23 lung it was 0.544 µM. Also, the TGI was 0.0972 µM in the experiment with HL-60(TB) leukemia; above 100 µM with CAKI-1 renal; above 100 µM with CCRF-CEM leukemia; above 100 µM in the experiment on SNB-75 CNS; above 100 µM with K-562 leukemia; 0.0682 µM in the experiment with NCI-H522 lung. Moreover, the TGI was above 100 µM in the experiment on BT-549 breast, 7.37 µM with HOP-92 NSCLC and above 100 µM in the experiment with NCI-H23 lung.
On to `O=Nc1c(-c2cccc([N+](=O)[O-])c2)nc2cnccn12`, for which the TGI was above 100 µM with HL-60(TB) leukemia; 43 µM in the experiment on CAKI-1 renal; 1.72 µM with CCRF-CEM leukemia; above 100 µM in the experiment on SNB-75 CNS; 49.2 µM with K-562 leukemia; 54.5 µM in the experiment with NCI/ADR-RES ovarian. Besides, the TGI with NCI-H522 lung was 33.3 µM; in the experiment with BT-549 breast it was above 100 µM; in the experiment on HOP-92 NSCLC, 38.4 µM; in the experiment on NCI-H23 lung, 36.1 µM.
`CCc1ccc(-c2ccc(=O)n(-c3ccc(S(N)(=O)=O)cc3)n2)cc1`: the GI50 in the experiment with HL-60(TB) leukemia was 0.365 µM; in the experiment with CAKI-1 renal it was 2.6 µM; with CCRF-CEM leukemia, 1.22 µM; in the experiment with SNB-75 CNS, 2.96 µM; with K-562 leukemia, 0.297 µM; in the experiment on NCI/ADR-RES ovarian, 0.412 µM. The GI50 in the experiment with NCI-H522 lung was 0.182 µM; in the experiment on BT-549 breast, 0.916 µM; in the experiment with HOP-92 NSCLC, 5.55 µM; with NCI-H23 lung, 11.9 µM. Moreover, the TGI in the experiment with HL-60(TB) leukemia is 4.18 µM; in the experiment with CAKI-1 renal, above 100 µM; with CCRF-CEM leukemia it was above 100 µM; in the experiment on SNB-75 CNS it was 28 µM; in the experiment with K-562 leukemia, above 46.6 µM; in the experiment with NCI/ADR-RES ovarian, 12.2 µM. In addition, the TGI with NCI-H522 lung is 4.18 µM; in the experiment with BT-549 breast it was 21.7 µM; in the experiment on HOP-92 NSCLC, 43.1 µM; in the experiment with NCI-H23 lung, above 100 µM.
As to `Nc1c(C(=O)c2cccc(-c3ccc[n+]([O-])c3)c2)cnn1-c1ccc(F)cc1F`, the GI50 in the experiment with HL-60(TB) leukemia, in the experiment on CAKI-1 renal, in the experiment with CCRF-CEM leukemia, in the experiment on SNB-75 CNS, in the experiment with K-562 leukemia and in the experiment with NCI/ADR-RES ovarian was above 25 µM each time. For the same compound, the GI50 in the experiment with NCI-H522 lung, in the experiment on BT-549 breast, in the experiment on HOP-92 NSCLC and in the experiment with NCI-H23 lung was above 25 µM in each case. Moreover, the TGI in the experiment with HL-60(TB) leukemia, in the experiment with CAKI-1 renal, in the experiment on CCRF-CEM leukemia, with SNB-75 CNS, in the experiment on K-562 leukemia and in the experiment with NCI/ADR-RES ovarian was above 25 µM each time. In addition, the TGI with NCI-H522 lung, with BT-549 breast, in the experiment with HOP-92 NSCLC and in the experiment on NCI-H23 lung was above 25 µM each time.
With `CSc1ccc(-c2cc(-c3ccc(NC(=O)CCCN4CCCC4)cc3)nc(-c3ccc(NC(=O)CCCN4CCCC4)cc3)c2)cc1`, the GI50 was 6.54 µM in the experiment with HL-60(TB) leukemia; 4.94 µM in the experiment with CAKI-1 renal; 1.9 µM in the experiment with CCRF-CEM leukemia; 1.64 µM in the experiment on SNB-75 CNS; 1.64 µM in the experiment with K-562 leukemia; 12.4 µM in the experiment on NCI/ADR-RES ovarian. In addition, the GI50 was 1.91 µM with NCI-H522 lung, 2.21 µM in the experiment with BT-549 breast, 1.72 µM with HOP-92 NSCLC and 1.67 µM in the experiment with NCI-H23 lung. Besides, the TGI in the experiment on HL-60(TB) leukemia was 23.5 µM; with CAKI-1 renal it was 21.3 µM; in the experiment with CCRF-CEM leukemia, 3.61 µM; with SNB-75 CNS it was 4.99 µM; in the experiment with K-562 leukemia, 3.31 µM; with NCI/ADR-RES ovarian, 31.3 µM. Besides, the TGI in the experiment on NCI-H522 lung worked out at 3.59 µM; with BT-549 breast, 5.49 µM; with HOP-92 NSCLC, 5.61 µM; with NCI-H23 lung, 3.16 µM.
`OCc1cccc(-c2ccc3ncc(-c4nc(NC5CC5)ncc4F)n3c2)c1`: the GI50 in the experiment on HL-60(TB) leukemia is 0.243 µM; in the experiment with CAKI-1 renal it was 0.153 µM; in the experiment with CCRF-CEM leukemia, 0.249 µM; with SNB-75 CNS, 0.199 µM; in the experiment with K-562 leukemia it was 0.434 µM; in the experiment on NCI/ADR-RES ovarian, 0.321 µM. Also, the GI50 was 0.316 µM with NCI-H522 lung, 0.23 µM in the experiment with BT-549 breast, 0.303 µM in the experiment with HOP-92 NSCLC and 0.281 µM in the experiment on NCI-H23 lung. In addition, the TGI with HL-60(TB) leukemia is 0.708 µM; with CAKI-1 renal, 1.65 µM; in the experiment on CCRF-CEM leukemia, 2.69 µM; in the experiment with SNB-75 CNS, 0.453 µM; in the experiment on K-562 leukemia, above 100 µM; in the experiment on NCI/ADR-RES ovarian, 1.68 µM. Moreover, the TGI came to 2.34 µM in the experiment on NCI-H522 lung, 0.811 µM in the experiment with BT-549 breast, 0.901 µM with HOP-92 NSCLC and 1.19 µM in the experiment on NCI-H23 lung.
Regarding `CCCCCCOc1ccc(/C=N/NC(N)=S)cc1`, the GI50 is 1.15 µM in the experiment with HL-60(TB) leukemia; 1.57 µM with CAKI-1 renal; 0.605 µM with CCRF-CEM leukemia; 4.74 µM in the experiment on SNB-75 CNS; 1.72 µM in the experiment on K-562 leukemia; 3.4 µM in the experiment on NCI/ADR-RES ovarian. Besides, the GI50 was 0.421 µM in the experiment on NCI-H522 lung, 2.79 µM in the experiment with BT-549 breast, 2.39 µM in the experiment with HOP-92 NSCLC and 4.3 µM with NCI-H23 lung. The TGI was 17.7 µM in the experiment on HL-60(TB) leukemia; 5.71 µM with CAKI-1 renal; 7.69 µM with CCRF-CEM leukemia; 25.6 µM with SNB-75 CNS; above 26.8 µM in the experiment on K-562 leukemia; 18.3 µM in the experiment with NCI/ADR-RES ovarian. Further, the TGI with NCI-H522 lung was 1.76 µM; in the experiment with BT-549 breast it was 9.15 µM; with HOP-92 NSCLC, 27.4 µM; in the experiment on NCI-H23 lung it was above 100 µM.
Take `Cc1[nH]c(C(=O)Nc2ccc(C(=O)N3CCNCC3)cc2OC(C)C)c(Cl)c1Cl`: the GI50 with HL-60(TB) leukemia is 2.21 µM; with CAKI-1 renal, 3.61 µM; with CCRF-CEM leukemia, 2.57 µM; with SNB-75 CNS, 3.31 µM; with K-562 leukemia, 2.15 µM; with NCI/ADR-RES ovarian, 2.25 µM. For the same compound, the GI50 was 1.72 µM in the experiment with NCI-H522 lung, 14.3 µM in the experiment on BT-549 breast, 1.62 µM in the experiment on HOP-92 NSCLC and 1.95 µM in the experiment with NCI-H23 lung. The TGI in the experiment with HL-60(TB) leukemia is 4.44 µM; in the experiment with CAKI-1 renal, 15.1 µM; in the experiment on CCRF-CEM leukemia it was 6.94 µM; with SNB-75 CNS, 14.1 µM; in the experiment with K-562 leukemia it was 4.71 µM; in the experiment with NCI/ADR-RES ovarian, 5.58 µM. The TGI in the experiment with NCI-H522 lung was 3.42 µM; in the experiment on BT-549 breast, 29 µM; in the experiment on HOP-92 NSCLC, 6.07 µM; in the experiment with NCI-H23 lung, 4.21 µM.
